Data published in BindingDB's records for doi:10.1021/jm0499108 (University of Michigan, 2004).

Target: T1, E3 ubiquitin-protein ligase XIAP [241-356] (Homo sapiens, UniProt P98170)
T1 construct: 241-356
Experiment: Fluorescence Polarization Competitive Binding Assay
Conditions: pH 7.5; 22 °C
Protocol: A quantitative in vitro binding assay using the fluorescence polarization (FP) based method was developed and used to determine the binding affinity of Smac mimetics to XIAP protein. The polarization values were measured after 3 hrs of incubation when the binding reached equilibrium. […] Curve fitting was performed using Prism ([sequence]). The binding affinity (Ki) of tested compound was calculated using the equation developed for computing the Ki value in FP-based binding assays.

T1 sequence (P98170 241-356): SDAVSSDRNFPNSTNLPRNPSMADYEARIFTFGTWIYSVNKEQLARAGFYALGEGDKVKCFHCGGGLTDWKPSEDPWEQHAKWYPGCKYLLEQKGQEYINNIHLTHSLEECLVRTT

## C[C@H](N)C(=O)N[C@H]1CC[C@H]2CC[C@@H](C(=O)Nc3ccccc3)N2C1=O [(3S,6S,8aS)-6-[(2S)-2-aminopropanamido]-5-oxo-N-phenyl-octahydroindolizine-3-carboxamide]
  Ki: > 100 µM
